Reference: patent publication US20030181436A1, “Treatment for AIDS, HIV, and other related diseases and compounds for use therewith” (priority 2001, published 2003)

Key:
[1] = tested on: ACH-2 cells; assay: ACH-2 assay, compound toxicity by MTS dye reduction; format: cell-based; set-up: Y. CC / 9′. CC: unit not given here
Protocol: At assay termination the assay plates were stained with the soluble tetrazolium-based dye MTS (CellTiter® Reagent, Promega) to determined cell viability and quantify compound toxicity. […] At termination of the assay 20 μL of MTS reagent was added per well. The wells were incubated for 4 h at 37° C., 5% CO2. Adhesive plate scalers were used in place of the lids, the sealed plate was inverted several times to mix the soluble formazan product and the plate was read spectrophotometrically at 490 nm with a 650 nm reference wavelength on a Molecular Devices Vmax plate reader.
U1 and ACH-2 cells were obtained from the AIDS Research and Reference Reagent Program and maintained under standard culture conditions in RPMI 1640 supplemented with 10% fetal bovine serum (heat inactivated), supplemented with 2 mM […], 100U/ml penicillin and 100 μg/ml, streptomycin. U1 cells were derived from the histocytic leukemia cell line U937, and contain a single integrated copy (HIV IIIB) […] a cytokine and/or phorbol inducible provirus. ACH-2 cells are derived from the A3.01 T lymphoblastic cell line, and contain 2 copies of the HIV IIIB provirus, however only one is cytokine and/or phorbol inducible. Cultures were maintained in such a way as to ensure exponential growth of the populations. At the time of the assay, cells were collected by centrifugation and counted by hemacytometer. If cell viability by Trypan Blue dye exclusion was less than 70% the assay was terminated. The cells were adjusted to 5×10^4 cells/mL and 100 μL, placed in 96 well plates with 100 μL media containing a final concentration of […] TNFα and the test compound. Cultures were incubated for 3 days and supernatants harvested. Compound toxicity was determined by MTS dye reduction. Virus expression was measured by supernatant reverse transcriptasc activity.

[2] = tested on: HIV RoJo (a clinical isolate); assay: Chronically infected PBMCs, supernatant reverse transcriptase activity; format: cell-based
Protocol: Reverse transcriptase activity was measured in cell-free supernatants. Tritiated thymidine triphosphate (NEN) (TTP) was resuspended in distilled H2O at 5 Ci/mL. Poly rA and oligo dT were prepared as a stock solution which was kept at −20° C. The RT reaction buffer was prepared fresh on a daily basis and consists of 125 μL 1.0 M EGTA, 125 μL dH2O, 110 μL 10% SDS, 50 μL 1.0 M Tris (pH 7.4), 50 μL, 1.0 M DTT, and 40 μL 1.0 M MgCl2. These three solutions were mixed together in a ratio of 2 parts TTP, 1 part poly rA:oligo dT, and 1 part reaction buffer. Ten microliters of this reaction mixture was placed in a round bottom microtiter plate and 15 μL of virus containing supernatant was added and mixed. The plate was incubated at 37° C. in a water bath with a solid support to prevent submersion of the plate and incubated for 60 minutes. Following reaction, the reaction volume was spotted onto pieces of DE81 paper, washed 5 times for 5 minutes each in a 5% sodium phosphate buffer, 2 times for 1 minute each in distilled water, 2 times for 1 minute each in 70% ethanol, and then dried. Opti-Fluor O was added to each sample and incorporated radioactivity was quantitated utilizing a Wallac 1450 Microbetaplus liquid scintillation counter.
In these studies PBMCs are infected with HIV RoJo (a clinical isolate) and a dynamic population of infected PBMCs established over a period of 2 to 3 weeks. This population of infected PBMCs was established and maintained by the addition of fresh PBMCs in a 1:1 ratio every 7 days, thus overcoming the lost of PBMCs to normal cell death processes. Thus a population of cells was established that consisted of uninfected cells, short lived infected cells and long lived infected cells. In experiments where AZT was added to prevent re-infection of the population, we typically saw a 50% reduction in infection following a 7 day treatment. This means that 50% of the virus production from the infected […] population was due re-infection. […] Thus there was a population of infected PBMCs present ([…] of the total) which survived for extended periods of time and thus met the definition of being chronically infected.

Zinc Iodiscorbate [Compound Z]
TOXICITY VALUES (MTS) MEAN ([1]; 0.00063 μg/ml, exp 2): 0.975 O, p. | TOXICITY VALUES (MTS) MEAN ([1]; 0.002 μg/ml, exp 2): 0.929 O, p. | TOXICITY VALUES (MTS) MEAN ([1]; 0.00626 μg/ml, exp 2): 0.961 O, p. | 9′. CC ([1]; 0.02 μg/ml, exp 2): 101.1 | TOXICITY VALUES (MTS) MEAN ([1]; 0.02 μg/ml, exp 2): 1.006 O, p. | TOXICITY VALUES (MTS) MEAN ([1]; 0.0625 μg/ml, exp 2): 0.894 O, p. | 9′. CC ([1]; 0.2 μg/ml, exp 2): 81.0 | TOXICITY VALUES (MTS) MEAN ([1]; 0.2 μg/ml, exp 2): 0.807 O, p. | 9′. CC ([1]; 0.625 μg/ml, exp 2): 72.2 | TOXICITY VALUES (MTS) MEAN ([1]; 0.625 μg/ml, exp 2): 0.718 O, p. | 9′. CC ([1]; 2 μg/ml, exp 2): 70.0 | TOXICITY VALUES (MTS) MEAN ([1]; 2 μg/ml, exp 2): 0.696 O, p. | 9′. CC ([1]; 6.25 μg/ml, exp 2): 40.1 | TOXICITY VALUES (MTS) MEAN ([1]; 6.25 μg/ml, exp 2): 0.399 O, p. | 9′. CC ([1]; 20 μg/ml, exp 2): 0.0 | TOXICITY VALUES (MTS) MEAN ([1]; 20 μg/ml, exp 2): 0.000 O, p. | 9′. CC ([1]; 62.5 μg/ml, exp 2): 0.0 | TOXICITY VALUES (MTS) MEAN ([1]; 62.5 μg/ml, exp 2): 0.000 O, p. | 9′. CC ([1]; 200 μg/ml, exp 2): 0.0 | TOXICITY VALUES (MTS) MEAN ([1]; 200 μg/ml, exp 2): 0.000 O, p. | TOXICITY VALUES (MTS) MEAN ([1]; 0.00063 μG/Ml, exp 1): 1.061 O. D. | TOXICITY VALUES (MTS) MEAN ([1]; 0.002 μG/Ml [c9], exp 1): 1.049 O. D. | TOXICITY VALUES (MTS) MEAN ([1]; 0.002 μG/Ml [c11], exp 1): 1.081 O. D. | TOXICITY VALUES (MTS) MEAN ([1]; 0.00625 μG/Ml, exp 1): 1.019 O. D. | TOXICITY VALUES (MTS) MEAN ([1]; 0.0625 μG/Ml, exp 1): 0.984 O. D. | TOXICITY VALUES (MTS) MEAN ([1]; 0.2 μG/Ml, exp 1): 1.002 O. D. | TOXICITY VALUES (MTS) MEAN ([1]; 0.625 μG/Ml, exp 1): 0.939 O. D. | % CC ([1]; 2 μG/Ml, exp 1): 88.1% | TOXICITY VALUES (MTS) MEAN ([1]; 2 μG/Ml, exp 1): 0.885 O. D. | % CC ([1]; 6.25 μG/Ml, exp 1): 81.8% | TOXICITY VALUES (MTS) MEAN ([1]; 6.25 μG/Ml, exp 1): 0.822 O. D. | % CC ([1]; 20 μG/Ml, exp 1): 85.1% | TOXICITY VALUES (MTS) MEAN ([1]; 20 μG/Ml, exp 1): 0.856 O. D. | % CC ([1]; 62.5 μG/Ml, exp 1): 6.3% | TOXICITY VALUES (MTS) MEAN ([1]; 62.5 μG/Ml, exp 1): 0.063 O. D. | % CC ([1]; 200 μG/Ml, exp 1): 1.3% | TOXICITY VALUES (MTS) MEAN ([1]; 200 μG/Ml, exp 1): 0.013 O. D. | TC50 ([1]; ACH2, exp 1, Table 2): ITC50 (μG/Ml) = 38.94 | TC50 ([1]; ACH-2, experiment 1, Table 1): 39 | TC50 ([1]; ACH-2, experiment 2, Table 1): 4.8 | ACH2 TC50 ([1]; exp 2): 4.8 µg/mL | ACH2 TC50 ([1]; exp 2, listed as COMPOUND Z): TC50 (vg/mol) = 4.84 μg/ml | IC50 in chronically infected PBMCs ([2]; 21 days): approximately 30 μg/ml | Percent Control by Supernatant Reverse Transcriptase activity ([2]; Day 7, 1 μg/ml): 256 Percent Control | Percent Control by Supernatant Reverse Transcriptase activity ([2]; Day 7, 5 μg/ml): 303 Percent Control | Percent Control by Supernatant Reverse Transcriptase activity ([2]; Day 7, 10 μg/ml): 230 Percent Control | Percent Control by Supernatant Reverse Transcriptase activity ([2]; Day 7, 25 μg/ml): 217 Percent Control | Percent Control by Supernatant Reverse Transcriptase activity ([2]; Day 7, 50 μg/ml): 229 Percent Control | Percent Control by Supernatant Reverse Transcriptase activity ([2]; Day 7, 100 μg/ml): 167 Percent Control | Percent Control by Supernatant Reverse Transcriptase activity ([2]; Day 14, 1 μg/ml): 63 Percent Control | Percent Control by Supernatant Reverse Transcriptase activity ([2]; Day 14, 5 μg/ml): 87 Percent Control | Percent Control by Supernatant Reverse Transcriptase activity ([2]; Day 14, 10 μg/ml): 69 Percent Control | Percent Control by Supernatant Reverse Transcriptase activity ([2]; Day 14, 25 μg/ml): 74 Percent Control | Percent Control by Supernatant Reverse Transcriptase activity ([2]; Day 14, 50 μg/ml): 67 Percent Control | Percent Control by Supernatant Reverse Transcriptase activity ([2]; Day 14, 100 μg/ml): 49 Percent Control | Percent Control by Supernatant Reverse Transcriptase activity ([2]; da 21, 1 μg/ml): 80 Percent Control | Percent Control by Supernatant Reverse Transcriptase activity ([2]; da 21, 5 μg/ml): 70 Percent Control | Percent Control by Supernatant Reverse Transcriptase activity ([2]; da 21, 10 μg/ml): 56 Percent Control | Percent Control by Supernatant Reverse Transcriptase activity ([2]; da 21, 25 μg/ml): 60 Percent Control | Percent Control by Supernatant Reverse Transcriptase activity ([2]; da 21, 50 μg/ml): 48 Percent Control | Percent Control by Supernatant Reverse Transcriptase activity ([2]; da 21, 100 μg/ml): 22 Percent Control
